This note sets out measurements from ChEMBL document CHEMBL3870329, “Synthesis of peptide nucleic acids (PNA) with a crosslinking agent to RNA and effective inhibition of dicer” (Bioorg Med Chem Lett, 2016).

Calls of active or inactive are those of the source. No cut-off for these calls is given here.

The subject of experiment [1] is Nucleic Acid. Put plainly: Binding affinity to 5'-end FAM-tagged CACUAUUACCGCAAACUAUC RNA (unknown origin) assessed as induction of crosslinking by measuring heteroduplex formation at 4 uM measured after 24 hrs by bromophenol blue staining-based denaturing PAGE analysis. The class given is nucleic-acid assay.
For experiment [2], the system named is Nucleic Acid. The experiment can be described thus: Binding affinity to synthetic 5'-FAM-labelled pre-miR-122 RNA site1 (unknown origin) assessed as human dicer-mediated digestion of pre-miR-122 RNA preincubated with RNA for 2 days followed by dicer addition measured after 2 hrs by denaturing PAGE analysis. The class given is nucleic-acid assay.
Experiment [3] relates to Nucleic Acid. Put plainly: Binding affinity to synthetic 5'-FAM-labelled pre-miR-122 RNA site1 (unknown origin) assessed as inhibition of human dicer-mediated digestion of pre-miR-122 RNA preincubated with RNA for 2 days followed by dicer addition measured after 2 hrs by denaturing PAGE analysis relative to control. The class given is nucleic-acid assay. To be noted: concentration not given here.

Experiment [4] relates to Nucleic Acid. Put plainly: Binding affinity to synthetic 5'-fluorescein-labelled pre-miR-122 RNA site1 (unknown origin) assessed as heteroduplex formation at 4 uM measured after 48 hrs by non-denaturing PAGE analysis relative to control. The class given is nucleic-acid assay.
Experiment [5] deals with Nucleic Acid. The experiment can be described thus: Binding affinity to synthetic 5'-FAM-labelled pre-miR-122 RNA site1 (unknown origin) assessed as heteroduplex formation at 4 uM measured after 2 hrs by denaturing PAGE analysis relative to control. The class given is nucleic-acid assay.
Experiment [6] is described as follows: Binding affinity to 5'-end FAM-tagged GACGCAAUCCCAAUCUGGUU RNA (unknown origin) assessed as change in melting temperature at 1.5 uM measured after 5 mins by UV spectrophotometry.
Experiment [7] in a line: Binding affinity to 5'-end FAM-tagged GACGCAATCCCAATCTGGTT DNA (unknown origin) assessed as change in melting temperature at 1.5 uM measured after 5 mins by UV spectrophotometry.
The nature of experiment [8]: Binding affinity to 5'-end FAM-tagged GACACAAUCCCAAUCUGGUU RNA (unknown origin) assessed as change in melting temperature at 1.5 uM measured after 5 mins by UV spectrophotometry.
A short description of experiment [9]: Binding affinity to 5'-end FAM-tagged GACCCAAUCCCAAUCUGGUU RNA (unknown origin) assessed as change in melting temperature at 1.5 uM measured after 5 mins by UV spectrophotometry.
Experiment [10] in a line: Binding affinity to 5'-end FAM-tagged GACACAATCCCAATCTGGTT DNA (unknown origin) assessed as change in melting temperature at 1.5 uM measured after 5 mins by UV spectrophotometry.
The nature of experiment [11]: Binding affinity to 5'-end FAM-tagged GACTCAATCCCAATCTGGTT DNA (unknown origin) assessed as change in melting temperature at 1.5 uM measured after 5 mins by UV spectrophotometry.
Experiment [12] can be described thus: Binding affinity to 5'-end FAM-tagged GACCCAATCCCAATCTGGTT DNA (unknown origin) assessed as change in melting temperature at 1.5 uM measured after 5 mins by UV spectrophotometry.
Experiment [13] can be described thus: Binding affinity to 5'-end FAM-tagged GACUCAAUCCCAAUCUGGUU RNA (unknown origin) assessed as change in melting temperature at 1.5 uM measured after 5 mins by UV spectrophotometry.
Experiment [14] deals with Nucleic Acid. Put plainly: Binding affinity to 5'-end FAM-tagged GUGGUAACAGUGUGAGGU RNA (unknown origin) assessed as induction of crosslinking by measuring heteroduplex formation at 4 uM measured after 24 hrs by bromophenol blue staining-based denaturing PAGE analysis. The class given is nucleic-acid assay.
In experiment [15] the test system is Nucleic Acid. Put plainly: Binding affinity to synthetic 5'-FAM-labelled pre-miR-122 RNA site2 (unknown origin) assessed as inhibition of human dicer-mediated digestion of pre-miR-122 RNA preincubated with RNA for 2 days followed by dicer addition measured after 2 hrs by denaturing PAGE analysis relative to control. The class given is nucleic-acid assay. As to conditions: concentration not given here.

For experiment [16], the system named is Nucleic Acid. Put plainly: Binding affinity to synthetic 5'-fluorescein-labelled pre-miR-122 RNA site2 (unknown origin) assessed as heteroduplex formation at 4 uM measured after 48 hrs by non-denaturing PAGE analysis relative to control. The class given is nucleic-acid assay.
Experiment [17] has as its system Nucleic Acid. The experiment can be described thus: Binding affinity to synthetic 5'-FAM-labelled pre-miR-122 RNA site2 (unknown origin) assessed as heteroduplex formation at 4 uM measured after 2 hrs by denaturing PAGE analysis relative to control. The class given is nucleic-acid assay.
The subject of experiment [18] is Nucleic Acid. Put plainly: Binding affinity to synthetic 5'-FAM-labelled pre-miR-122 RNA site2 (unknown origin) assessed as human dicer-mediated digestion of pre-miR-122 RNA preincubated with RNA for 2 days followed by dicer addition measured after 2 hrs by denaturing PAGE analysis. The class given is nucleic-acid assay.

Usually inhibition stands for the share of the control response that was lost under treatment. `Cc1cn(CC(=O)N(CCNC(=O)CN(CCNC(=O)CN(CCNC(=O)CN(CCNC(=O)CN(CCNC(=O)CN(CCNC(=O)CN(CCNC(=O)CN(CCN)C(=O)Cn2cnc3c(N)ncnc32)C(=O)Cn2cc(C)c(=O)[nH]c2=O)C(=O)Cn2cnc3c(=O)[nH]c(N)nc32)C(=O)Cn2cnc3c(=O)[nH]c(N)nc32)C(=O)Cn2ccc(N)nc2=O)C(=O)Cn2cnc3c(=O)[nH]c(N)nc32)C(=O)Cn2cc(C)c(=O)[nH]c2=O)CC(=O)NCCN(CC(=O)NCCN(CC(=O)NCCN(CC(=O)NCCN(CC(=O)NCCN(CC(=O)N[C@@H](CCCNC(=N)N)C(=O)O)C(=O)Cn2cnc3c(N)ncnc32)C(=O)Cn2cc(C)c(=O)[nH]c2=O)C(=O)Cn2cnc3c(N)ncnc32)C(=O)Cn2cnc3c(=O)[nH]c(N)nc32)C(=O)Cn2cc(C)c(=O)[nH]c2=O)c(=O)[nH]c1=O`: in experiment [1], the outcome was Active. In addition, the results for the Activity in experiment [2], in [4] and in experiment [5] were 91%, 16% and 0%, respectively. For the same molecule, the inhibition in experiment [3] came to 9%.
Broadly, the ΔTm is the shift of the melting midpoint relative to a reference. As for `CSCCc1nc(N)nc2c1ncn2CC(=O)N(CCNC(C)=O)CC(=O)NCCN(CC(=O)NCCN(CC(=O)NCCN(CC(=O)NCCN(CC(=O)NCCN(CC(=O)NCCN(CC(=O)NCCN(CC(=O)NCCN(CC(=O)NCCN(CC(=O)NCCN(CC(=O)NCCN(CC(=O)N[C@@H](CCCNC(=N)N)C(=O)N[C@@H](CCCNC(=N)N)C(=O)NCC(N)=O)C(=O)Cn1cnc2c(=O)[nH]c(N)nc21)C(=O)Cn1cnc2c(N)ncnc21)C(=O)Cn1cc(C)c(=O)[nH]c1=O)C(=O)Cn1cc(C)c(=O)[nH]c1=O)C(=O)Cn1cnc2c(=O)[nH]c(N)nc21)C(=O)Cn1cnc2c(=O)[nH]c(N)nc21)C(=O)Cn1cnc2c(=O)[nH]c(N)nc21)C(=O)Cn1cnc2c(N)ncnc21)C(=O)Cn1cc(C)c(=O)[nH]c1=O)C(=O)Cn1cc(C)c(=O)[nH]c1=O)C(=O)Cn1cnc2c(=O)[nH]c(N)nc21`, the ΔTm in experiment [6] is -2.1 °C; in experiment [7] it was -1.9 °C; in experiment [8] it was -4.2 °C; in experiment [9] it was -2.5 °C; in [10], -2.7 °C; in [11], -1.1 °C. The ΔTm was -1.7 °C in experiment [12] and -2.3 °C in experiment [13].
Turning to `Cc1cn(CC(=O)N(CCNC(=O)CN(CCNC(=O)CN(CCNC(=O)CN(CCNC(=O)CN(CCNC(=O)CN(CCNC(=O)CN(CCNC(=O)CN(CCNC(=O)CN(CCNC(=O)CN(CCNC(=O)CN(CCN)C(=O)Cn2cnc3c(N)ncnc32)C(=O)Cn2cc(C)c(=O)[nH]c2=O)C(=O)Cn2cc(C)c(=O)[nH]c2=O)C(=O)Cn2cnc3c(=O)[nH]c(N)nc32)C(=O)Cn2cc(C)c(=O)[nH]c2=O)C(=O)Cn2ccc(N)nc2=O)C(=O)Cn2cnc3c(N)ncnc32)C(=O)Cn2ccc(N)nc2=O)C(=O)Cn2cnc3c(N)ncnc32)C(=O)Cn2ccc(N)nc2=O)CC(=O)NCCN(CC(=O)NCCN(CC(=O)N[C@@H](CCCNC(=N)N)C(=O)O)C(=O)Cn2ccc(N)nc2=O)C(=O)Cn2ccc(N)nc2=O)c(=O)[nH]c1=O`, the result in [14] was Active. The inhibition in experiment [15] amounted to 22%. The Activity in experiment [16] stood at 28%; in experiment [17], 0%; in [18], 78%.
